This assay has as its target wt GPR55 (Gα12) (Homo sapiens, UniProt Q9Y2T6). The experiment in a line: BRET² G protein dissociation assay, wt GPR55 with Gα12. It counts as cell-based. To be noted: for ΔBRET² ratio (Mean): GPR55-wt-G12. The source says:
Guided by structural insights, we employed the G protein dissociation assay to validate the G protein selectivity of GPR55. The sequences of Gα13 and Gα12 are highly similar (76% sequence similarity) and only seven Gα13 residues differ within a 4 Å sphere of the receptor- G protein interaction site (Fig. 5d). Therefore, we included Gα12 in our assays as a control since it was reported that 1-AG-PI-activated GPR55 signals exclusively via Gα13[10]. Herein, we observed robust G protein activation (concluded from a BRET² ratio decrease) when GPR55 was co-expressed with Gα13 (Fig. 5b), even without the addition of any ligand. (Fig. 2f and Supplementary Table S3). This observation is indicative of constitutive activity; however, it could also be explained by GPR55 interaction with cellular lipids that are ubiquitously present. […] (Fig. 5c).
G protein dissociation assays were performed according to the original protocols of the TRUPATH BRET² assay[47],[87] but with subtle modifications as previously described[61],[88],[89]. All reagents and cells were obtained from Thermo Fisher Scientific unless indicated otherwise. The coding sequences for the G protein biosensors[47] (Gα12-Rluc8, Gα13-Rluc8, wt Gβ3, and Gγ9-GFP), the wt GPR55, the construct used for cryo-EM (with GFP bearing a G67A mutation to disrupt fluorescence properties[48] for BRET² assays), GPR55 binding pocket mutants (G152^4.56F, G152^4.56W, N171^ECL2Q, N171^ECL2A, T176^5.33A, R253^6.62A), and the wt TBXA2R were codon-optimized for Homo sapiens, gene-synthesized, and sub-cloned into pcDNA^TM3.1(+) between NheI and HindIII restriction sites by GeneArt (Thermo Fisher Scientific). […] Freshly grown cells were washed with Dulbecco’s Balanced Salt Solution (DPBS, cat. #14200075) and detached using trypsin-ethylenediaminetetraacetic acid (trypsin-EDTA) (cat. #25300-062). Then, the cells were reconstituted to 500,000 cells per mL with fresh medium, and 1,000,000 cells were seeded into each well of a 6-well plate. After 3 h incubation at 37 °C and 5% CO2, adherent cells were transfected with 600 ng DNA (1:1:1:1 ratio of plasmid DNA for GPR55, wt Gβ3, Gγ9-GFP, and Gα12-Rluc8 or Gα13-Rluc8). Plasmid DNA was mixed with 1.5 µL Lipofectamine^TM 2000 (cat. #11668027) in Opti-MEM^TM medium (cat. #31985062) and incubated for 20 min. Then, the mixture was added to each well of the 6-well plate following 24 h incubation at 37 °C and 5% CO2. Transfected cells were washed with DPBS, detached using EDTA (Versene, cat. #15040066), and reconstituted into fresh medium at 500,000 cells mL^−1. From this suspension, 50,000 cells were seeded into each well of a white-bottom 96-well plate (Nunc^TM MicroWell^TM 96 wells, cat. #136101) following overnight incubation at 37 °C and 5% CO2. Then, the adherent cells were washed with assay medium [Hank’s balanced salt solution (HBSS, cat. #14065056) plus 20 mM HEPES pH 7.4 (cat. #15630056)] and finally reconstituted into 50 µL of the same medium. […] Methoxy e-Coelenterazine was used as luciferase substrate (Prolume Purple, NanoLight Technology, cat. #369), reconstituted at 1 mM in methanol and diluted to 37.5 µM with assay buffer (7.5 µM final assay concentration). The assay was started by the addition of 20 µL luciferase substrate to each well of the assay plate using a Multidrop^TM Combi reagent dispenser (Thermo Fisher Scientific), followed by 5 min incubation at room temperature. Then, 30 µL of agonist dilutions or DMSO control was added (final DMSO concentration 1.5%), followed by an additional 5 min incubation at room temperature.

Chain of wt GPR55 (Gα12) (Q9Y2T6 whole entry): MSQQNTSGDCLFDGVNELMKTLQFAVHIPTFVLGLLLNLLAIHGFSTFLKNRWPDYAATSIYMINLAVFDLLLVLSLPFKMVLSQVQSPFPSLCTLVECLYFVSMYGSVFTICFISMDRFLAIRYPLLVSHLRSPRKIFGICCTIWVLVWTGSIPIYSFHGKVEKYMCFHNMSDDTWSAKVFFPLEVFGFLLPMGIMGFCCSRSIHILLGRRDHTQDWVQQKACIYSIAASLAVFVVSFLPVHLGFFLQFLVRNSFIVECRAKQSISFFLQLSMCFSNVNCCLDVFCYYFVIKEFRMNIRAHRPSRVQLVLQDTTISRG

`Cc1cccc(N2CCN(C(=O)c3cc(S(=O)(=O)N(C)C)ccc3N3CCCC3)CC2)c1C` [ML184, 3-[[4-(2,3-dimethylphenyl)-1-piperazinyl]carbonyl]-N,N-dimethyl-4-(1-pyrrolidinyl)benzenesulfonamide]: the “ΔBRET² ratio (Mean)” value by setting is: (3e-10 M) 0.009016; (1e-9 M) 0.003569; (3e-9 M) -0.002484; (1e-8 M) -0.008889; (3e-8 M) -0.006497; (1e-7 M) -0.00961. Further, the “ΔBRET² ratio (Mean)” value (3e-7 M) is on record as -0.01427; the “ΔBRET² ratio (Mean)” value (1e-6 M) was -0.01536; the “ΔBRET² ratio (Mean)” value (3e-6 M) is -0.01786; the “ΔBRET² ratio (Mean)” value (1e-5 M) is on record as -0.02016; the “ΔBRET² ratio (Mean)” value (3e-5 M) is recorded as -0.02115.
As for `CCCCC[C@H](O)/C=C/[C@@H]1[C@@H](C/C=C\CCCC(=O)O)[C@H]2CO[C@@H]1C2` [U-46619], the “G protein activation at GPR55-transfected cells (in words)” value (wt GPR55, Gα12) was “inactive”.

These data come from PMC11861906, “Structural basis for lipid-mediated activation of G protein-coupled receptor GPR55” (Nature Communications, 2025).
